#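 Following 48 hours of exposure in 96-well plates, responses at five concentrations were used to interpolate endpoints linearly. The concentration for 50% growth inhibition is given as GI50.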 Activity calls are given as the source filed them. No stated cut-off is given here; in the data, active = GI50 up to about 1.1 µM and inactive = higher.
# Key:
# Assay in all cases: NCI-60 cell line screen, 48 h
# [1] = system: SN12C
# [2] = system: LOX IMVI
# [3] = system: OVCAR-8
# [4] = system: UACC-62
# [5] = system: Hs-578T
# [6] = system: MOLT-4
# [7] = system: SF-539
# [8] = system: A498
# [9] = system: NCI-H460
# [10] = system: U-251
# [11] = system: A549
# [12] = system: SK-MEL-5
# [13] = system: RXF 393
# [14] = system: DU-145
# [15] = system: NCI-H522
# [16] = system: MDA-MB-231
# [17] = system: HCT-15
# [18] = system: UACC-257
# [19] = system: Malme-3M
# [20] = system: NCI-H226
# [21] = system: SNB-19
# [22] = system: OVCAR-3
# [23] = system: SR
# [24] = system: PC-3
# [25] = system: IGROV-1
# [26] = system: 786-0
# [27] = system: MDA-MB-435
# [28] = system: HCT-116
# [29] = system: SF-295
# [30] = system: SNB-75
# [31] = system: HL-60
# [32] = system: MCF7
# [33] = system: ACHN
# [34] = system: K562
# [35] = system: EKVX
# [36] = system: COLO 205
# [37] = system: T47D
# [38] = system: SF-268
# [39] = system: M14
# [40] = system: TK-10
# [41] = system: HOP-62
# [42] = system: NCI/ADR-RES
# [43] = system: HT-29
# [44] = system: CCRF-CEM
# [45] = system: RPMI-8226
# [46] = system: OVCAR-5
# [47] = system: OVCAR-4
# [48] = system: HOP-92
# [49] = system: KM12
# [50] = system: UO-31
# [51] = system: SK-MEL-28
# [52] = system: CAKI-1
# [53] = system: SK-MEL-2
# [54] = system: NCI-H23
# [55] = system: SW-620
# [56] = system: MDA-N
structure (smiles),measurement,setting,value
COc1ccc(N/N=C/C2=CC(C)(C)C(C#N)(C#N)C(O)=C2C#N)cc1,GI50,[1],47.4 µM (inactive)
same,GI50,[2],31.4 µM (inactive)
same,GI50,[3],28.7 µM (inactive)
same,GI50,[4],62.2 µM (inactive)
same,GI50,[5],44.7 µM (inactive)
same,GI50,[6],28.4 µM (inactive)
same,GI50,[7],26.1 µM (inactive)
same,GI50,[8],37.9 µM (inactive)
same,GI50,[9],20.9 µM (inactive)
same,GI50,[10],45.1 µM (inactive)
same,GI50,[11],25.6 µM (inactive)
same,GI50,[12],69.7 µM (inactive)
same,GI50,[13],36.6 µM (inactive)
same,GI50,[14],77.8 µM (inactive)
same,GI50,[15],37.7 µM (inactive)
same,GI50,[16],34.3 µM (inactive)
same,GI50,[17],14.1 µM
same,GI50,[18],25 µM (inactive)
same,GI50,[19],29.4 µM (inactive)
same,GI50,[20],77.8 µM (inactive)
same,GI50,[21],56.6 µM (inactive)
same,GI50,[22],21.6 µM (inactive)
same,GI50,[23],11.5 µM (inactive)
same,GI50,[24],27.8 µM (inactive)
same,GI50,[25],46.9 µM (inactive)
same,GI50,[26],38.5 µM (inactive)
same,GI50,[27],65.3 µM (inactive)
same,GI50,[28],39 µM (inactive)
same,GI50,[29],36.6 µM (inactive)
same,GI50,[30],> 100 µM (inactive)
same,GI50,[31],37.7 µM (inactive)
same,GI50,[32],35.8 µM (inactive)
same,GI50,[33],40.4 µM (inactive)
same,GI50,[34],16.1 µM (inactive)
same,GI50,[35],66.5 µM (inactive)
same,GI50,[36],22.5 µM (inactive)
same,GI50,[37],35.6 µM (inactive)
same,GI50,[38],41 µM (inactive)
same,GI50,[39],54.2 µM (inactive)
same,GI50,[40],> 100 µM (inactive)
same,GI50,[41],43.6 µM (inactive)
same,GI50,[42],37 µM (inactive)
same,GI50,[43],43.1 µM (inactive)
same,GI50,[44],35.5 µM (inactive)
same,GI50,[45],35.6 µM (inactive)
same,GI50,[46],69.8 µM (inactive)
same,GI50,[47],50 µM (inactive)
same,GI50,[48],17.1 µM (inactive)
same,GI50,[49],32.5 µM (inactive)
same,GI50,[50],20.5 µM (inactive)
same,GI50,[51],91.2 µM (inactive)
same,GI50,[52],36.6 µM (inactive)
same,GI50,[53],49.2 µM (inactive)
same,GI50,[54],35.9 µM (inactive)
same,GI50,[55],40.9 µM (inactive)
same,GI50,[56],54.5 µM (inactive)
CC(=O)Oc1ccn2nc(C)c(Cc3c(C)nn4ccc(OC(C)=O)cc34)c2c1,GI50,[1],> 100 µM (inactive)
same,GI50,[2],79.1 µM (inactive)
same,GI50,[3],> 100 µM (inactive)
same,GI50,[4],98.2 µM (inactive)
same,GI50,[5],32.4 µM (inactive)
same,GI50,[6],49.8 µM (inactive)
same,GI50,[7],51.4 µM (inactive)
same,GI50,[9],50.9 µM (inactive)
same,GI50,[10],62.7 µM (inactive)
same,GI50,[11],> 100 µM (inactive)
same,GI50,[12],> 100 µM (inactive)
same,GI50,[14],> 100 µM (inactive)
same,GI50,[15],33.2 µM (inactive)
same,GI50,[16],> 100 µM (inactive)
same,GI50,[17],> 100 µM
same,GI50,[18],47.1 µM (inactive)
same,GI50,[19],> 100 µM (inactive)
same,GI50,[20],> 100 µM (inactive)
same,GI50,[21],> 100 µM (inactive)
same,GI50,[22],> 100 µM (inactive)
same,GI50,[23],> 100 µM (inactive)
same,GI50,[24],> 10 µM (inactive)
same,GI50,[25],> 100 µM (inactive)
same,GI50,[26],> 100 µM (inactive)
same,GI50,[27],25.1 µM (inactive)
same,GI50,[28],> 100 µM (inactive)
same,GI50,[29],23 µM (inactive)
same,GI50,[30],54.8 µM (inactive)
same,GI50,[31],39.1 µM (inactive)
same,GI50,[32],> 10 µM (inactive)
same,GI50,[33],98.2 µM (inactive)
same,GI50,[34],37.8 µM (inactive)
same,GI50,[35],> 100 µM (inactive)
same,GI50,[37],> 100 µM (inactive)
same,GI50,[38],> 100 µM (inactive)
same,GI50,[39],> 100 µM (inactive)
same,GI50,[40],> 100 µM (inactive)
same,GI50,[41],48 µM (inactive)
same,GI50,[42],> 100 µM (inactive)
same,GI50,[43],> 100 µM (inactive)
same,GI50,[44],27.9 µM (inactive)
same,GI50,[46],> 100 µM (inactive)
same,GI50,[47],> 100 µM (inactive)
same,GI50,[48],> 100 µM (inactive)
same,GI50,[49],> 100 µM (inactive)
same,GI50,[51],> 100 µM (inactive)
same,GI50,[52],51.8 µM (inactive)
same,GI50,[53],34.6 µM (inactive)
same,GI50,[54],> 100 µM (inactive)
same,GI50,[55],> 100 µM (inactive)
same,GI50,[56],> 10 µM (inactive)

# — ChEMBL document CHEMBL1201862, “PubChem BioAssay data set” (2004)
